This is an account of results in publication PMC6208384 (2018).

The test system of data set [1] is DIR2s_GAAACAC (RNA, aptamer) GGAUGCGCCUUGAAAAGCCUGCGAAACACGCAGCUGGUGAAUGACAGCUAUGGCGCAUCC
Description: fluorescence titration. The settings on record: 150 mM NaCl, 5 mM MgCl2; 50 mM Tris pH 7.4, 20 °C; construct assigned from review file b5063.

For data set [2], the system named is DIR2s_WT (UUCG) (RNA, aptamer) GGAUGCGCCUUGAAAAGCCUGCUUCGGCAGCUGGUGAAUGACAGCUAUGGCGCAUCC
Description: fluorescence activation. The settings on record: 150 mM NaCl, 5 mM MgCl2; 50 mM Tris pH 7.4, 20 °C.

The subject of data set [3] is G39, A40, A41 to U (RNA, aptamer) GGAUGCGCCUUGAAAAGCCUGCGAAACACGCAGCUGGUUUUUGACAGCUAUGGCGCAUCC
Description: fluorescence activation. The settings on record: 150 mM NaCl, 5 mM MgCl2; 50 mM Tris pH 7.4, 20 °C; RNA 3 µM, dye 6 µM; fluorescence abolished.

Data set [4] has as its system A15C; A40, A41 to G (RNA, aptamer) GGAUGCGCCUUGAACAGCCUGCGAAACACGCAGCUGGUGGGUGACAGCUAUGGCGCAUCC
Briefly: fluorescence activation. The note with it: 150 mM NaCl, 5 mM MgCl2; 50 mM Tris pH 7.4, 20 °C; RNA 3 µM, dye 6 µM; fluorescence abolished.

For data set [5], the system named is Abasic G39 (RNA, aptamer, abasic at 39) GGAUGCGCCUUGAAAAGCCUGCGAAACACGCAGCUGGUNAAUGACAGCUAUGGCGCAUCC
Briefly: fluorescence activation. The note with it: 150 mM NaCl, 5 mM MgCl2; 50 mM Tris pH 7.4, 20 °C; RNA 3 µM, dye 6 µM; fluorescence diminished.

The subject of data set [6] is Abasic A40 (RNA, aptamer, abasic at 40) GGAUGCGCCUUGAAAAGCCUGCGAAACACGCAGCUGGUGNAUGACAGCUAUGGCGCAUCC
Briefly: fluorescence activation. The settings on record: 150 mM NaCl, 5 mM MgCl2; 50 mM Tris pH 7.4, 20 °C; RNA 3 µM, dye 6 µM; fluorescence diminished.

For data set [7], the system named is A40U (RNA, aptamer) GGAUGCGCCUUGAAAAGCCUGCGAAACACGCAGCUGGUGUAUGACAGCUAUGGCGCAUCC
Briefly: fluorescence activation. The settings on record: 150 mM NaCl, 5 mM MgCl2; 50 mM Tris pH 7.4, 20 °C; RNA 3 µM, dye 6 µM; fluorescence as WT.

Data set [8] deals with A41U (RNA, aptamer) GGAUGCGCCUUGAAAAGCCUGCGAAACACGCAGCUGGUGAUUGACAGCUAUGGCGCAUCC
Description: fluorescence activation. The note with it: 150 mM NaCl, 5 mM MgCl2; 50 mM Tris pH 7.4, 20 °C; RNA 3 µM, dye 6 µM; fluorescence as WT.

Data set [9] deals with 5 bp P1 (RNA, aptamer) GGCCUUGAAAAGCCUGCGAAACACGCAGCUGGUGAAUGACAGCUAUGGCC
Description: fluorescence activation. The note with it: 150 mM NaCl, 5 mM MgCl2; 50 mM Tris pH 7.4, 20 °C; RNA 3 µM, dye 6 µM; fluorescence as WT.

In data set [10] the test system is 0 bp P1 (RNA, aptamer) GGAAAAGCCCGCGAAACACGCAGCUGGUGAAUGACAGCU
Briefly: fluorescence activation. The note with it: 150 mM NaCl, 5 mM MgCl2; 50 mM Tris pH 7.4, 20 °C; RNA 3 µM, dye 6 µM; ca. 80% of WT fluorescence.

Data set [11] concerns DIR2s_GAAACAC (RNA, aptamer) GGAUGCGCCUUGAAAAGCCUGCGAAACACGCAGCUGGUGAAUGACAGCUAUGGCGCAUCC
Description: X-ray crystal structure, 1.86 Å. The note with it: 10 mM MgCl2, 1.8 M Li2SO4; 50 mM MES pH 5.6; ternary complex with Fab BL3-6.

The test system is the same in data set [12]. Description: fluorescence activation. The settings on record: 150 mM NaCl, 5 mM MgCl2; 50 mM Tris pH 7.4, 20 °C; loop version (UUCG or GAAACAC) not stated.
In data set [13] the test system is Fab BL3-6, PDB:6DB9_2+PDB:6DB9_3. Description: filter binding. The note with it: 5 mM Mg2+; no dye mentioned; Filter binding: 50 mM Tris pH 7.4, 150 mM NaCl, 5 mM MgCl2, 0.1 U/uL RNase inhibitor, 2 nM-2 uM Fab, 30 min; RNA refolded at 50 C then RT (binding temperature …).
The subject of data set [14] is DIR2s_GAAACAC (RNA, aptamer) GGAUGCGCCUUGAAAAGCCUGCGAAACACGCAGCUGGUGAAUGACAGCUAUGGCGCAUCC
Briefly: fluorescence competition. The note with it: 150 mM NaCl, 5 mM MgCl2; 50 mM Tris pH 7.4, 20 °C; OTB-SO3 displaced, 500 nM RNA, 600 nM OTB-SO3.

A word on the Kd: it is the concentration at which binding is half-saturated. In the case of `CN1/C(=C/c2sc3ccccc3[n+]2CCCS(=O)(=O)[O-])Oc2ccccc21`, the Kd in data set [1] is given as 708 ± 16 nM. For the same compound, the binding result was “yes” in [2]; “no” in [3]; “no” in data set [4]; “weak” in [5]; “weak” in data set [6]; “yes” in data set [7]. Besides, the binding result in [8], in data set [9], in data set [10] and in [11] was “yes” in each case.

For `CN1C=CC(=Cc2sc3ccccc3[n+]2CC(=O)NCCOCCOCCOCCNC(=O)CCCC[C@@H]2SC[C@@H]3NC(=O)N[C@@H]32)c2ccccc21`, the binding entry in data set [12] is given as “yes”.

In the case of “GGAUGCGCCUUGAAAAGCCUGCGAAACACGCAGCUGGUGAAUGACAGCUAUGGCGCAUCC [DIR2s_GAAACAC RNA]”, the Kd in [13] came out at 67 nM.

Consider `CN1C(=CC=Cc2cc[n+](CCCS(=O)(=O)[O-])c3ccccc23)C(C)(C)c2ccccc21`, for which the binding result in [14] is given as “yes”.
